What was measured:
A549 cells = test: MTT assay, A549; assay type: cell-based; settings: Homo sapiens, 72 h, lung adenocarcinoma, read-out: Cytotoxic activity IC50, A549
Protocol: (§1) The cell lines used in the cytotoxicity study, besides MCF-12A, were purchased from European Collection of Cell Culture (ECACC, Salisbury, UK): HEK293 (human embryonic kidney, ATTC no. CRL-1573), A549 (Human lung carcinoma, ECACC no. 86012804), CCD39Lu (Human lung fibroblasts, ECACC no. 90110512), MCF-7 (Human breast adenocarcinoma, ECACC no. 86012803) and MDA-MB-231 (Human breast adenocarcinoma ECACC no. 92020424). Cell lines were cultured in DMEM medium without phenol red and supplemented with 10% (v/v) FBS, 1% penicillin-streptomycin and 1% L-glutamine. MCF-12A (ATTC no. […]) was purchased from American Type Culture Collection (ATCC Manassas, VA 20110 USA). MCF-12A cells were kept in 1:1 mixture of Dulbecco’s modified Eagle’s medium and Ham’s F12 medium, 20 ng/ml human epidermal growth factor, 100 ng/ml cholera toxin, 0.01 mg/ml bovine insulin, 500 ng/ml hydrocortisone and 5% horse serum. All cell lines were cultured at 37°C, in a humidified atmosphere containing 5% CO2.
(§2) Compounds were dissolved in DMSO to the final concentration of […]. A549, CCD39Lu, MCF-7, MDA-MB-231 and MCF-12A cells were seeded in 96 wells plates at density 2x10^4 cells/well and incubated overnight as described above. Subsequently, cells were treated with tested compounds at concentrations: 100 μM; 50 μM; 25μM; 12.5μM; 6 μM; 3 μM; 1.5 μM. […] Cells were incubated 72 h at 37°C in a humidified atmosphere containing 5% CO2 in the cell culture media appropriate for each cell line. Then, the medium was aspirated and 170 μl MTT solution (5mg/ml) was added to each well. Plates were incubated for 2 hours at 37°C, and then plates were centrifuged at 1200 rpm for 3 minutes. The formazan crystals were dissolved in 200 μl DMSO and plates were further agitated on a plate shaker at 300–500 rpm for 10 minutes. Absorbance at 570 nm (with reference wavelenght 650 nm) was measured using a plate reader (Biotek Instruments, Elx-800). Cell viability was calculated as a percentage relative to the control.

MDA-MB-231 cells = test: MTT assay, MDA-MB-231; assay type: cell-based, human; settings: Homo sapiens, MDA-MB-231, 72 h, estrogen independent breast adenocarcinoma, read-out: Cytotoxic activity IC50, MDA-MB-231
Protocol: as §1, §2

MCF-7 cells = test: MTT assay, MCF-7; assay type: cell-based, human; settings: for IC50: Homo sapiens, MCF7, 72 h, estrogen dependent breast adenocarcinoma, read-out: Cytotoxic activity IC50, MCF-7; for Activity in MTT assay (in words), MCF-7: 72 h
Protocol: as §1, §2

MTT assay, MCF-12A = assay type: cell-based; settings: human, MCF-12A cells (non-tumorigenic breast epithelial), read-out: Cytotoxic activity IC50, MCF-12A
Protocol: as §1, §2

MTT assay, CCD39Lu = assay type: cell-based; settings: human, CCD39Lu cells (non-tumorigenic lung fibroblasts), read-out: Cytotoxic activity IC50, CCD39Lu
Protocol: as §1, §2

human ERα receptor = biological target: T1, human ERα receptor (Homo sapiens, UniProt P03372); test: Estrogen Receptor luciferase assay in HEK293 cells transfected with ERα; assay type: cell-based; settings: HEK293 transfected with ERα and luciferase reporter, compared with estradiol, Fig 3A/3B
T1 construct: host or cells: HEK293
T1 sequence (P03372 1-595): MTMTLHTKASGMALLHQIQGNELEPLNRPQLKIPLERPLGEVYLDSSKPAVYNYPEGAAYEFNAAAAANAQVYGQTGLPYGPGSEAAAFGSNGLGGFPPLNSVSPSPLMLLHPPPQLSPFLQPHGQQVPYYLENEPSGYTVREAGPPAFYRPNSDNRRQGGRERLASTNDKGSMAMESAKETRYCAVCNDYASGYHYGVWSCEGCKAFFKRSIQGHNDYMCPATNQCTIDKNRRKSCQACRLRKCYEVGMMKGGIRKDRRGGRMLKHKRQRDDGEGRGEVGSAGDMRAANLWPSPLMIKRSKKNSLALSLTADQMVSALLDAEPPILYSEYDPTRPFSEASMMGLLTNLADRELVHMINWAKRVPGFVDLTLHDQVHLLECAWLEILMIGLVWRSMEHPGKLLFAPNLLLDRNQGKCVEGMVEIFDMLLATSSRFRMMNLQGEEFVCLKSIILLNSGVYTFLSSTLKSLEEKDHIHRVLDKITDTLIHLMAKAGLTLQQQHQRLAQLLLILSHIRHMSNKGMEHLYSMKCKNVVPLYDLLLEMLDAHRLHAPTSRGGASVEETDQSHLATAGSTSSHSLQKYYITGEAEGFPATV
Source text: (§3) To obtain a eukaryotic vector expressing only the ER-α nuclear receptor, a construct was designed by cloning a KpnI-BamHI fragment from plasmid pEGFP-C1-ERα containing the ERα coding sequence that includes a stop signal into the pEGFP-N3 plasmid (Clontech Laboratories, Palo Alto, CA) under the control of the CMV promoter. This construction was termed pEGFP-N-ERα, and although it encoded both human ERα receptor and GFP protein, only the former is expressed. For mock transfections, pEGFP-N3 plasmid was digested with BglII and NotI and religated after polishing DNA ends to remove GFP coding sequence. Plasmid sequence was confirmed by automatic sequencing. Prior to transfection, cells were seeded in 48 well plates at density of 1.5 x 10^4 cells/well and incubated for 24 h to reach a cell confluence of 80–90%. […] MCF-7 cells, which endogenously express ERα receptor, were transfected with p3xERRE/ERE-luciferase plus the pRLTK Renilla luciferase control plasmid (95:5). Firefly and Renilla luciferase activities were measured using the Dual Luciferase Assay System (Promega, Madison, WI, USA), following a standard protocol using a Sirius L luminometer (Berthold Technologies, Bad Wildbad, Germany). Data were expressed as relative changes in luciferase activity and normalized to 100%.

estrogen receptor = biological target: T2, estrogen receptor (Homo sapiens, UniProt P03372); test: Estrogen Receptor luciferase assay in MCF-7 cells (endogenous ER); assay type: cell-based; settings: MCF-7 transfected with p3xERRE/ERE-luciferase, Fig 3C
T2 construct: MCF-7 cells, which endogenously express ERα receptor; endogenous in cells; host or cells: MCF-7
T2 sequence (P03372 1-595): T1 sequence (P03372 1-595)
Source text: as §3

Compound | IC50 (A549 cells) [µM] | IC50 (MDA-MB-231 cells) [µM] | IC50 (MCF-7 cells) [µM] | IC50 at 72 h (MTT assay, MCF-12A) [µM] | IC50 at 72 h (MTT assay, CCD39Lu) [µM] | Activity in MTT assay (in words), MCF-7 (MCF-7 cells) | ER dependent transcriptional activity (human ERα receptor) | Transcriptional (luciferase) activity in MCF-7 (estrogen receptor)
COc1ccc(NC(=O)c2ccccc2[N+](=O)[O-])cc1 [Compound 1] | 92.4 | 79.8 | 74.9 | > 100 | 96.3 |  |  | 
COc1ccc(NC(=O)c2ccc(F)cc2[N+](=O)[O-])cc1 [Compound 2] | 47.6 | 39.7 | 38.3 | > 100 | 45.2 | significant activity | did not stimulate ER dependent transcriptional activity | 
COc1ccc(NC(=O)c2cc(Cl)ccc2[N+](=O)[O-])cc1 [Compound 3] | > 100 | > 100 | > 100 | > 100 | > 100 |  |  | 
COc1ccc(NC(=O)c2ccc(OC)cc2[N+](=O)[O-])cc1 [Compound 4] | 30.1 | 67 | 28.4 | > 100 | 48.8 | significant activity | did not stimulate ER dependent transcriptional activity | 
COc1ccc(NC(=O)c2cc(C)c(C)cc2[N+](=O)[O-])cc1 [Compound 5] | > 100 | 92 | > 100 | > 100 | > 100 |  |  | 
COc1cc(NC(=O)c2cc(C)c(C)cc2[N+](=O)[O-])cc(OC)c1OC [Compound 6] | > 100 | > 100 | 24.7 | > 100 | > 100 | significant activity | capable to mediate ER dependent transcriptional activity in a similar mode than estradiol | much lower
COc1cc(NC(=O)c2ccccc2[N+](=O)[O-])cc(OC)c1OC [Compound 7] | 93.1 | > 100 | > 100 | > 100 | > 100 |  |  | 
O=C(Nc1cc(F)c(F)c(F)c1)c1ccccc1[N+](=O)[O-] [Compound 8] | > 100 | > 100 | > 100 | > 100 | > 100 |  |  | 

Source: article PMC4701221, “Novel Promising Estrogenic Receptor Modulators: Cytotoxic and Estrogenic Activity of Benzanilides and Dithiobenzanilides” (PLoS ONE, 2016)
